From PubChem BioAssay AID2060601 (Molecular Pharmacology Branch, DTP, NCI, 2025)

System: 874868-142-R-J2-PDC complex spheroids, growth % test/control
Experiment: Anticancer human tumor 874868-142-R-J2-PDC patient-derived head and neck squamous carcinoma cell line growth inhibition [CLK]
Details: for IC50: curve of first compound; for viability, T/C: stronger effect = lower value
In short: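 Multi-cell-type spheroids combined patient-derived tumor cells with HUVEC endothelial cells and human mesenchymal stem cells. Paired agents were dosed in half-log steps down from about clinical Cmax, or from 10 microM where Cmax was unknown.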
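Further: spheroids exposed to the compounds for 7 days.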
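Wherever viability, T/C is given: 100% = DMSO vehicle control viability.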

With `CCc1c2c(nc3ccc(O)cc13)-c1cc3c(c(=O)n1C2)COC(=O)[C@]3(O)CC` + CN1CCN(c2cc(C(=O)Nc3cc4cc(-c5cnn(C)c5)ccc4cn3)ccn2)CC1 as the compound, how does the IC50 (second compound 0.0316 µM) read?
Its IC50 is less than 3.16 nM.

What about the IC50 (second compound 0.1 µM) of the same compound?
Its IC50 is less than 3.16 nM.

And the IC50 (second compound 0.316 µM)?
The IC50 was less than 3.16 nM.

And the IC50 (second compound 1 µM)?
The IC50 was less than 3.16 nM.

What about the IC50 (second compound 3.16 µM) of the same compound?
Its IC50 is less than 3.16 nM.

And the IC50 (second compound 10 µM)?
The IC50 was less than 3.16 nM.

And the viability, T/C (second compound 0.0316 µM, first compound 0.00316 µM)?
Its viability, T/C is 40.3%.

And the viability, T/C (second compound 0.0316 µM, first compound 0.01 µM)?
The viability, T/C was 37.1%.

What about the viability, T/C (second compound 0.0316 µM, first compound 0.0316 µM) of the same compound?
Its viability, T/C is 26.8%.

And the viability, T/C (second compound 0.0316 µM, first compound 0.1 µM)?
Its viability, T/C is 16.6%.

What about the viability, T/C (second compound 0.0316 µM, first compound 0.316 µM) of the same compound?
Its viability, T/C is 7.13%.

What about the viability, T/C (second compound 0.0316 µM, first compound 1 µM) of the same compound?
Its viability, T/C is 1.61%.

And the viability, T/C (second compound 0.1 µM, first compound 0.00316 µM)?
The viability, T/C was 31.4%.

And the viability, T/C (second compound 0.1 µM, first compound 0.01 µM)?
Its viability, T/C is 24.2%.

And the viability, T/C (second compound 0.1 µM, first compound 0.0316 µM)?
The viability, T/C was 11.6%.

What about the viability, T/C (second compound 0.1 µM, first compound 0.1 µM) of the same compound?
Its viability, T/C is 8.69%.

And the viability, T/C (second compound 0.1 µM, first compound 0.316 µM)?
The viability, T/C was 2.29%.

And the viability, T/C (second compound 0.1 µM, first compound 1 µM)?
The viability, T/C was 0.34%.

What about the viability, T/C (second compound 0.316 µM, first compound 0.00316 µM) of the same compound?
Its viability, T/C is 12.2%.

And the viability, T/C (second compound 0.316 µM, first compound 0.01 µM)?
The viability, T/C was 7.89%.

And the viability, T/C (second compound 0.316 µM, first compound 0.0316 µM)?
The viability, T/C was 5.11%.

And the viability, T/C (second compound 0.316 µM, first compound 0.1 µM)?
Its viability, T/C is 1.25%.

What about the viability, T/C (second compound 0.316 µM, first compound 0.316 µM) of the same compound?
The viability, T/C was 0.46%.

What about the viability, T/C (second compound 0.316 µM, first compound 1 µM) of the same compound?
Its viability, T/C is 0.22%.

And the viability, T/C (second compound 1 µM, first compound 0.00316 µM)?
The viability, T/C was 0.28%.

What about the viability, T/C (second compound 1 µM, first compound 0.01 µM) of the same compound?
Its viability, T/C is 0.16%.

And the viability, T/C (second compound 1 µM, first compound 0.0316 µM)?
Its viability, T/C is 0.25%.

And the viability, T/C (second compound 1 µM, first compound 0.1 µM)?
The viability, T/C was 0.19%.

And the viability, T/C (second compound 1 µM, first compound 0.316 µM)?
Its viability, T/C is 0.39%.

What about the viability, T/C (second compound 1 µM, first compound 1 µM) of the same compound?
Its viability, T/C is 0.11%.

What about the viability, T/C (second compound 3.16 µM, first compound 0.00316 µM) of the same compound?
The viability, T/C was 0.18%.

And the viability, T/C (second compound 3.16 µM, first compound 0.01 µM)?
Its viability, T/C is 0.16%.

What about the viability, T/C (second compound 3.16 µM, first compound 0.0316 µM) of the same compound?
The viability, T/C was 0.32%.

And the viability, T/C (second compound 3.16 µM, first compound 0.1 µM)?
Its viability, T/C is 0.27%.

What about the viability, T/C (second compound 3.16 µM, first compound 0.316 µM) of the same compound?
Its viability, T/C is 0.19%.

And the viability, T/C (second compound 3.16 µM, first compound 1 µM)?
The viability, T/C was 0.11%.

And the viability, T/C (second compound 10 µM, first compound 0.00316 µM)?
The viability, T/C was 0.07%.

What about the viability, T/C (second compound 10 µM, first compound 0.01 µM) of the same compound?
Its viability, T/C is 3.98%.

And the viability, T/C (second compound 10 µM, first compound 0.0316 µM)?
Its viability, T/C is 0.4%.

And the viability, T/C (second compound 10 µM, first compound 0.1 µM)?
Its viability, T/C is 0.15%.

What about the viability, T/C (second compound 10 µM, first compound 0.316 µM) of the same compound?
The viability, T/C was 0.19%.

And the viability, T/C (second compound 10 µM, first compound 1 µM)?
The viability, T/C was 0.19%.
